Reference: PMC5173319, “Crenactin forms actin-like double helical filaments regulated by arcadin-2” (eLife, 2016)

Tests used:
crenactin [1] = target: T1, crenactin (Pyrobaculum calidifontis, UniProt A3MWN5); test: cryoEM helical reconstruction, […] A; format: binding; conditions: filament polymerised with 2 mM ATP and 4 mM MgCl2, 50 mM NH4HCO3, 20 mM KCl, on ice; ATPase active site
T1 construct: gene cren-1; full length 1-432, N-terminal His6-SUMO tag cleaved by SENP1; E. coli C41(DE3), codon-optimised gene; double helical filament (homopolymer); model residues 5-430
T1 sequence (A3MWN5 whole entry, the tested form may be a part): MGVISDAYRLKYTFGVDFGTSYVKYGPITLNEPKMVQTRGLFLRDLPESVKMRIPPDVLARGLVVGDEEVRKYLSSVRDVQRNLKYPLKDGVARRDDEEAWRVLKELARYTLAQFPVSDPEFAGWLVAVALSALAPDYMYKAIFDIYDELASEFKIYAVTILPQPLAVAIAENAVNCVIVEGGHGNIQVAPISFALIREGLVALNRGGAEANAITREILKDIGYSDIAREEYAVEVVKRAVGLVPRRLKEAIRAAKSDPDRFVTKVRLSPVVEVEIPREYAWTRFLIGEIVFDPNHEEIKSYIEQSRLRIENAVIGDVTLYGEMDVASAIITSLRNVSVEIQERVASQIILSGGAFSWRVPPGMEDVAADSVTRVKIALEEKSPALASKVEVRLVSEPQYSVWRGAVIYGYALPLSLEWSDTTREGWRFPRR

crenactin [2] = target: T1, crenactin; test: […] degree light scattering, polymerisation; format: biochemical; conditions: 3 uM crenactin, 2 mM ATP, 4 mM MgCl2, 50 mM NH4HCO3, 50 mM NaCl, 8% PEG 8000, 25 C

Compound	cryoEM helical reconstruction, 3.8 A (crenactin [1])	90 degree light scattering, polymerisation (crenactin [2])
Nc1ncnc2c1ncn2[C@@H]1O[C@H](COP(=O)(O)OP(=O)(O)O)[C@@H](O)[C@H]1O [ADP]	The cryoEM density for the ADP nucleotide is superimposed.	
Nc1ncnc2c1ncn2[C@@H]1O[C@H](COP(=O)(O)OP(=O)(O)OP(=O)(O)O)[C@@H](O)[C@H]1O [ATP]		Addition of ATP to crenactin resulted in an increase of scattering
